Experimental data taken from ChEMBL document CHEMBL1201862, “PubChem BioAssay data set” (2004).
Calls of active or inactive are those of the source.

Columns and labels:
[1] = target: T1, Trace amine-associated receptor 1 (Homo sapiens, UniProt Q96RJ0); assay: Counterscreen for agonists of the human trace amine associated receptor 1 (hTAAR1): Fluorescence-based cell-based high throughput dose response assay to identify hTAAR1 agonist that also desensitize TAAR1 receptor response.; type: functional
T1 sequence (Q96RJ0 whole entry): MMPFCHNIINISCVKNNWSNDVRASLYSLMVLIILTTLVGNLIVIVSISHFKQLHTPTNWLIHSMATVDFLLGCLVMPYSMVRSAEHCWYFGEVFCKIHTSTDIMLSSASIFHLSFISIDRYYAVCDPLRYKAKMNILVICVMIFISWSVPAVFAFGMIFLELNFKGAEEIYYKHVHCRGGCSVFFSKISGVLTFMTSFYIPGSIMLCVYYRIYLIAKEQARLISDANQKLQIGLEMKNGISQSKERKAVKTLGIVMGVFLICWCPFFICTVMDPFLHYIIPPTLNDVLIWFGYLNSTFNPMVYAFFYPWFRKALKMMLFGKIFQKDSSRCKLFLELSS

[2] = target: T1, Trace amine-associated receptor 1; assay: Fluorescence-based cell-based high throughput dose response assay to identify agonists of the human trace amine associated receptor 1 (TAAR1).; type: functional
cells [3] = type: functional, cell-based
[4] = target: Fructose-bisphosphate aldolase (Mycobacterium tuberculosis, UniProt P9WQA3); assay: Fluorescence-based biochemical high throughput dose response assay for inhibitors of the fructose-bisphosphate aldolase (FBA) of M. tuberculosis.; type: functional
Fructose-bisphosphate aldolase, sequence (P9WQA3 whole entry): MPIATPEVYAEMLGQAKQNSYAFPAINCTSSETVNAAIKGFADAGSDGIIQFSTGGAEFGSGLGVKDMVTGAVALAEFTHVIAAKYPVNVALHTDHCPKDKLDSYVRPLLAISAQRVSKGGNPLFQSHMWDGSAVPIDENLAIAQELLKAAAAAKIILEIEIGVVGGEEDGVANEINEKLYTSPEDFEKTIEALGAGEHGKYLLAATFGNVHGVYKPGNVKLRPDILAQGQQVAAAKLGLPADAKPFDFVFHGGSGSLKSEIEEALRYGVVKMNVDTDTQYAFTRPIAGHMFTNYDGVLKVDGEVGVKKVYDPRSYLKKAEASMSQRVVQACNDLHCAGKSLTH

cells [5] = type: functional, cell-based; remark: listed apart in the source
[6] = target: Potassium channel subfamily K member 3 (Homo sapiens, UniProt O14649); assay: TASK1 (KCNK3) potassium channel inhibitors, SAR follow-up, CHO cells, FluxOR thallium flux (AID 652212); type: functional
Potassium channel subfamily K member 3, sequence (O14649 whole entry): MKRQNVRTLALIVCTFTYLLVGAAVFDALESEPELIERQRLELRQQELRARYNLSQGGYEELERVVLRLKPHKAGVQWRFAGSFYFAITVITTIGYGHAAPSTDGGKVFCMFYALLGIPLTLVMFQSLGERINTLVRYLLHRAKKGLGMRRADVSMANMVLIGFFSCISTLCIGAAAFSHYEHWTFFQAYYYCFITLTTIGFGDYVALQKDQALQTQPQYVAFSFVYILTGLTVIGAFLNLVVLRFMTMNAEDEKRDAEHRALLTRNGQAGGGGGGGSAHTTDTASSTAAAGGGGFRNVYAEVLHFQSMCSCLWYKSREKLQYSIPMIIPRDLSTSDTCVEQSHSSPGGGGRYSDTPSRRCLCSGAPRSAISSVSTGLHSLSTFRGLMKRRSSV

[7] = Counterscreen for antagonists of the human trace amine associated receptor 1 (hTAAR1): Fluorescence-based cell-based high throughput dose response assay to identify nonselective Ga16 antagonists.; type: functional
[8] = Counterscreen for […] of the human trace amine associated receptor 1 (TAAR1): Fluorescence-based cell-based high throughput dose response assay to identify nonselective Ga16 agonists.; type: functional
Nonstructural protein 1 = Nonstructural protein 1 (Influenza A virus, UniProt Q194T2); type: functional, Influenza A virus (A/California/07/2009(H1N1))
Nonstructural protein 1, sequence (Q194T2 whole entry): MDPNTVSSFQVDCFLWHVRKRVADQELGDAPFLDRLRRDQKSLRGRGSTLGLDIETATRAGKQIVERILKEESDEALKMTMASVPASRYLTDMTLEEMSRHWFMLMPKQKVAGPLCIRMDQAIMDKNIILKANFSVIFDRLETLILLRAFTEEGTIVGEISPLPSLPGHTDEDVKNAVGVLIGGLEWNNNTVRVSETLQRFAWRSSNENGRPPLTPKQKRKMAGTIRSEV

Cytochrome P450 3A4 = Cytochrome P450 3A4 (Homo sapiens, UniProt P08684);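 also: CYP3A4 tested as one member of a cytochrome P450 panel screen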
Cytochrome P450 3A4, sequence (P08684 whole entry): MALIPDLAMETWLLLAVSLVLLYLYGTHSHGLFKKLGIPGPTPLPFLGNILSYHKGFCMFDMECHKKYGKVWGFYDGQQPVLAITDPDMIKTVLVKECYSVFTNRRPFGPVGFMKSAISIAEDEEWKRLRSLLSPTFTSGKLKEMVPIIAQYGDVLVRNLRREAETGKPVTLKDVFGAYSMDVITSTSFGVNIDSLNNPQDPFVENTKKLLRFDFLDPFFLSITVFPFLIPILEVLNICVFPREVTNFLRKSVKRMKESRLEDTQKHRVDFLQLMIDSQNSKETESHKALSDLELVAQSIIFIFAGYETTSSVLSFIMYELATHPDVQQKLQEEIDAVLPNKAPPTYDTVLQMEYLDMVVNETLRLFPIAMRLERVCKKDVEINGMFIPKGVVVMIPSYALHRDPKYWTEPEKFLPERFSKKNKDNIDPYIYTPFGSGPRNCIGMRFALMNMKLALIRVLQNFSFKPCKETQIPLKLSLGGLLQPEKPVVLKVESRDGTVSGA

INS1 = assay: beta cell apoptosis inhibitors, cytokine rescue, dose response, luminescence, retest (AID 449756); type: functional, cell-based; conditions: Rattus norvegicus;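 also: cell death triggered by IL-1 beta plus TNF-alpha plus IFN-gamma mixture; protective hits raise ATP signal compared with cytokine alone wells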
fMet-Leu-Phe receptor = fMet-Leu-Phe receptor (Homo sapiens, UniProt P21462); assay: FPR ligands, dose response (AID 519); type: functional
fMet-Leu-Phe receptor, sequence (P21462 whole entry): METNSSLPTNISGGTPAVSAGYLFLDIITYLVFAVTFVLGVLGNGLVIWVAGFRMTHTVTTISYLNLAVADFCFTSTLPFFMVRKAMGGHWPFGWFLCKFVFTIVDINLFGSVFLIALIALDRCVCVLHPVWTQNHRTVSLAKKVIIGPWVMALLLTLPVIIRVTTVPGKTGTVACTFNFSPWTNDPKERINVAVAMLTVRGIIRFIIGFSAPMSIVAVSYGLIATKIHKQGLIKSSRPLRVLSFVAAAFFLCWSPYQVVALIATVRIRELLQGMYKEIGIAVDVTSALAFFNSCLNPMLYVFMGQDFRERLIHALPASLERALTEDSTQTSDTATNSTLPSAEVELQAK

[9] = NIH-3T3 fibroblast cytotoxicity, dose response, cytotoxicity control, cell-based, fluorescence, Alamar Blue, secondary assay (AID 2327); type: functional;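 also: NIH-3T3 mouse fibroblasts cultured with fluconazole at 8 µg/mL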
[10] = C. albicans growth with fluconazole, confirmation, fluorescence, retest (AID 2467); type: functional, cell-based
[11] = inhibitors of intracellular T. cruzi replication, confirmation, NIH3T3 host cells, beta-gal luminescence (AID 2044); type: functional, cell-based;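 also: intracellular parasites grown in NIH/3T3 mouse fibroblasts as host cells; luminescent beta-galactosidase reporter signal from transgenic T. cruzi replicating inside host cells; inhibitors lower the luminescence signal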
[12] = cytotoxicity in HEK-293T cells, dose response, cytotoxicity control for BCR NF-kB inhibitor project, luminescence, B-cell screen hits (AID 489021); type: functional, cell-based;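 also: HEK-293T cells carrying an NF-kB luciferase reporter; cells exposed to compound for about 14 hours before viability readout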
[13] = cytotoxicity toward NIH3T3 fibroblasts, dose response, counter-screen, cell-based, ATP luminescence, mouse fibroblasts (AID 2010); type: functional;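 also: cells exposed to compound for about 90 hours before reading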
[14] = target: COUP transcription factor 2 (Homo sapiens, UniProt P24468); assay: Luminescence-based cell-based high throughput dose response assay to identify inhibitors of COUP-TFII (NR2F2).; type: functional;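 also: HEK293 cells transiently cotransfected with COUP-TFII expression vector and reporter; luciferase reporter luminescence driven by COUP-TFII from the pX2-168 reporter plasmid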
COUP transcription factor 2, sequence (P24468 whole entry): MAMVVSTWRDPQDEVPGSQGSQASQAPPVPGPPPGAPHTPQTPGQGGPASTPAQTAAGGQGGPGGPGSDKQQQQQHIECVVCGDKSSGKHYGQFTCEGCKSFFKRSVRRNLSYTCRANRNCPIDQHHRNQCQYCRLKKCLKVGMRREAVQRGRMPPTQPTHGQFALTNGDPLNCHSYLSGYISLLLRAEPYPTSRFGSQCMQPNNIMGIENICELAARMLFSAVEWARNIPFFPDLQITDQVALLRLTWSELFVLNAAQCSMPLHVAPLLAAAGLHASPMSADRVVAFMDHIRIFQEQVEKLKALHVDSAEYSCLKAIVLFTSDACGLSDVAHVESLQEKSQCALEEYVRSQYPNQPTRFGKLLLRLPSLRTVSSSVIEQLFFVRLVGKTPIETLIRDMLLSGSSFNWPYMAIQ

Galanin receptor type 3 = Galanin receptor type 3 (Homo sapiens, UniProt O60755); assay: Fluorescence-based cell-based primary high throughput dose response assay to identify antagonists of the Galanin Receptor 3 (GalR3).; type: functional
Galanin receptor type 3, sequence (O60755 whole entry): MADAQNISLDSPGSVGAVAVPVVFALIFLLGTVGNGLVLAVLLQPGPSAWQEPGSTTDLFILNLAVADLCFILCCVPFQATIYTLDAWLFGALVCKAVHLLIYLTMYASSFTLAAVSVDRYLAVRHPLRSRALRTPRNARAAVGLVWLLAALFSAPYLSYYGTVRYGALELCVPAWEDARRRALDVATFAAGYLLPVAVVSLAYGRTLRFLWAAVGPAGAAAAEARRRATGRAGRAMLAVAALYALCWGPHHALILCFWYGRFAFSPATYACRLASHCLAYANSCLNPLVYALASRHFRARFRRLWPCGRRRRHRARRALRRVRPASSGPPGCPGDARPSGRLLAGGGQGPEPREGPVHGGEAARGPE

cells [15] = type: functional, cell-based; conditions: HEK-CNG
[16] = Late stage assay provider results from the probe development effort to identify selective inhibitors of heat shock protein 90 (HSP90): Absorbance-based cell proliferation assay in SKBR3 cells.; type: functional; conditions: SK-BR-3
[17] = Late stage assay provider results from the probe development effort to identify selective inhibitors of heat shock protein 90 (HSP90): Absorbance-based cell proliferation assay in MCF7 cells.; type: functional
[18] = HEK293T cell cytotoxicity, dose response, cytotoxicity control for HIV Vif inhibitor project, cherry-picks (AID 652208); type: functional, cell-based
[19] = target: T2, Ubiquitin-conjugating enzyme E2 N (Homo sapiens, UniProt P61088); type: functional;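 also: Dose-response confirmation in a TR-FRET assay detecting UBC13-driven polyubiquitin chain formation, inhibition measured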
T2 sequence (P61088 whole entry): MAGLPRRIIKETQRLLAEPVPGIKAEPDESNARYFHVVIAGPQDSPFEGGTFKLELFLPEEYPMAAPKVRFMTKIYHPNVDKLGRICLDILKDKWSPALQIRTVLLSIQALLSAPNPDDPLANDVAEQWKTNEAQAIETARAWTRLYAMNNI

[20] = growth suppression of PTEN-null colon cells, dose response, cell-based, HCT116 PTEN knockout (AID 1047); type: functional;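 also: HCT116 colon tumor cells with PTEN knocked out; cells exposed to compound for 60 hours before readout; potency for loss of cell viability measured by luminescence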
[21] = growth suppression of beta-catenin-knockout colon cells, dose response, cell-based, HCT116, human colon tumor (AID 1045); type: functional;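 also: HCT116 colon tumor cells with beta catenin knocked out; cells exposed to compound for 60 hours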
cells [22] = type: functional, cell-based; remark: listed apart in the source
[23] = target: Nuclear receptor subfamily 0 group B member 1 (Homo sapiens, UniProt P51843); type: functional, cell-based;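 also: HEK293T cells transfected with SF-1 and DAX-1 plus StAR promoter luciferase reporter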
Nuclear receptor subfamily 0 group B member 1, sequence (P51843 whole entry): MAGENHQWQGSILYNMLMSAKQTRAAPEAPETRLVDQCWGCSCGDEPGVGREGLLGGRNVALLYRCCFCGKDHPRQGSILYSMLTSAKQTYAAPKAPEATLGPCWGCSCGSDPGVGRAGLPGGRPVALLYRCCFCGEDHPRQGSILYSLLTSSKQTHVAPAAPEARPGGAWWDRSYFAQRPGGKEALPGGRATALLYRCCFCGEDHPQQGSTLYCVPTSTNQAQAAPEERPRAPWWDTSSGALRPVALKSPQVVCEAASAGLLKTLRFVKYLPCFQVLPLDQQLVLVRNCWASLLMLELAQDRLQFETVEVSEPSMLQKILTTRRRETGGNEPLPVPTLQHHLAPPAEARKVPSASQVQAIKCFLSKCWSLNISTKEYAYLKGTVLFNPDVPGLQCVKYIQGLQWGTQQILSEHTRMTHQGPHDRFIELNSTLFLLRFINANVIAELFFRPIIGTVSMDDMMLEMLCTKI

**Q.** With O=C(Nc1cccc2ccccc12)N1CCc2ccccc2C1 as the compound, how does the IC50 [1] read?
**A.** Its IC50 is 9.86 µM (active).

**Q.** What about the EC50 [2] of the same compound?
**A.** Its EC50 is 0.266 µM (active).

**Q.** And the IC50 (cells [3])?
**A.** The IC50 was > 29.9 µM (inactive).

**Q.** What about the IC50 [4] of the same compound?
**A.** The IC50 was > 9.99 µM (inactive).

**Q.** What about the EC50 (cells [5]) of the same compound?
**A.** The EC50 was > 29.9 µM (inactive).

**Q.** Which IC50 [6] does the source give for COc1ccc(C(=O)Nc2cccc(NC(=O)c3ccccc3)c2)cc1 here?
**A.** The IC50 was 4.46 µM (active).

**Q.** Which IC50 [7] does the source give for CCCCC(=O)Nc1ccc(C(=O)Nc2ccc(S(=O)(=O)N3CCCC3)cc2)cc1 here?
**A.** The IC50 was > 29.9 µM (inactive).

**Q.** And the EC50 [8]?
**A.** Its EC50 is > 29.9 µM (inactive).

**Q.** What does the source list for Nc1ccc(Nc2ccccc2)cc1?
**A.** IC50 (Nonstructural protein 1): 45.3 µM (active); AC50 (Cytochrome P450 3A4): 20 µM (inconclusive); AC50 (INS1): 7.64 µM (active); Ki (fMet-Leu-Phe receptor): > 66.7 µM (inactive)

**Q.** For CCOc1ccc(-[n+]2c(-c3ccccc3)cn3c2CCCCC3)cc1, which EC50 [9] is on record?
**A.** Its EC50 is > 150 µM (inactive).

**Q.** And the EC50 [10]?
**A.** Its EC50 is 16.3 µM (active).

**Q.** What about the EC50 [11] of the same compound?
**A.** The EC50 was 0.534 µM (active).

**Q.** And the AC50 (INS1)?
**A.** Its AC50 is 0.822 µM (active).

**Q.** What about the IC50 [12] of the same compound?
**A.** Its IC50 is > 80 µM (inactive).

**Q.** And the EC50 [13]?
**A.** The EC50 was 7 µM (active).

**Q.** And the IC50 [14]?
**A.** Its IC50 is 8.69 µM (active).

**Q.** Which results are given for COc1cccc(CN(C)C(=O)CNC(=O)c2ccc(-c3ccccc3)cc2)c1OC?
**A.** IC50 (Galanin receptor type 3): > 1.11 µM (active); EC50 (cells [15]): > 29.9 µM (inactive)

**Q.** Which IC50 [16] does the source give for CCCCOc1cccc(NC(=O)c2coc(=O)c(Br)c2)c1 here?
**A.** The IC50 was 32.9 µM (inactive).

**Q.** What about the IC50 [17] of the same compound?
**A.** Its IC50 is 22.8 µM (inactive).

**Q.** What does the source list for COc1cc2c3nnc(-c4ccc(F)cc4)c-3cn(Cc3ccc(F)cc3)c2cc1OC?
**A.** AC50 [18]: 26.3 µM (active); IC50 [19]: > 20 µM (inactive); EC50 [20]: 6.2 µM (active); EC50 [21]: 7.33 µM (active)

**Q.** What does the source list for COc1ccccc1OCc1cc(C(=O)N(C)CCC2CCCCO2)no1 (centres undefined)?
**A.** IC50 (cells [22]): > 67.5 µM (inactive); IC50 [23]: > 67.5 µM (inactive)
